This assay deals with T1, human ID2 protein (Homo sapiens, UniProt Q02363).
T1 sequence (Q02363 1-134): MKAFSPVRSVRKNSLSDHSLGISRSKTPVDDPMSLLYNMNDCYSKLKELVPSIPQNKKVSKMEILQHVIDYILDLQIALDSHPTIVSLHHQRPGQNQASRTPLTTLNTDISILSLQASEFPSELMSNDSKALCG
The assay is described as follows: SPR. The class given is binding.

A word on the Kd: it is the free concentration of one partner at which half of the binding sites on the other are occupied at equilibrium, for simple one-to-one binding. Higher therefore signals a looser complex.

Consider `O=C(CC1(O)C(=O)N(Cc2cccc(Cl)c2)c2ccccc21)c1ccccn1` (stereo not shown) [AK-778-XXMU], for which binding was characterised by a dissociation constant (Kd) of 129 nM.

For the origin of these results see paper doi:10.1101/2021.05.10.443505v2 (biorxiv, 2021).
